Key:
[1] = test system: 3D tumor sphere formation; conditions: cited from earlier work
MCF7 cells [2] = assay: Mammosphere formation assay (3D-spheroids); type: cell-based, human; conditions: for mammosphere formation in MCF7 cells: dose-dependent (0, 50 and 100 nM), FIG. 8A
Experimental: Mammosphere formation assay (for generating 3D-spheroids): A single-cell suspension was prepared using enzymatic, and manual disaggregation (25 gauge needle). […] After 5 days of culture, 3D-spheres >50 μm were counted using an eye piece (“graticule”), and the percentage of cells plated which formed spheres was calculated and is referred to as percent mammosphere formation, and was normalized to one (1=100% MSF). Mammosphere formation efficiency was analyzed in both the “low” and “high” sub-populations of auto-fluorescent cells, generated from either 2D-monolayers (M-L vs. M-H) or 3D-spheroids (S-L vs. S-H). All mammosphere experiments were performed in triplicate, at least 3 times independently.

[3] = test system: S-H cells (MCF7 3D-spheroids); assay: S-H cell sub-population in MCF7 3D-spheroids after treatment (auto-fluorescence flow-cytometry); type: cell-based, human; conditions: for change in S-H cells: control to 100 nM, FIG. 8B/8C
Experimental: FIG. 8A is a bar graph showing mammosphere formation in MCF7 cells at various concentrations of DPI, and including Ribociclib at 100 nM. […] Most importantly, e-CSCs derived from 3D-spheroids are highly oxidative and can be effectively targeted with an OXPHOS inhibitor. Non-limiting examples of other OXPHOS inhibitors that may be used in the present approach include atovaquone, irinotecan, sorafenib, niclosamide, and berberine chloride.
Data were analyzed with FlowJo 10.1 software.
For 3D-spheroid suspensions, after 5 days of growth under low-attachment condition, the spheres were collected from six 225 cm2 flasks pre-coated with poly-HEMA and gently centrifuged at 100 g for 5 min. After centrifugation, 1 ml of 0.025% of trypsin was added to the “sphere-pellet” and incubated them at 37° C. for 5 minutes. Using a 25-gauge needle, the sphere-suspension was passed through the syringe 4 times. […] After creating these single-cell suspensions, they were subjected to standard flow-cytometry (using the SONY SH800 Cell Sorter) to isolate the auto-fluorescent cell sub-populations, as indicated above. Examples of flow-cytometry plots are included in the figures, and the gating strategy is shown.

[4] = test system: M-H cells from MCF7 monolayers
MCF7 monolayers = conditions: after 130 hours of DPI treatment, FIG. 7C
Experimental: The data represents 100,000 cells after 120 hours of DPI treatment.
Vital mitochondrial staining: Cells were trypsinized and re-suspended into a 1×10^6 cell/ml solution in PBS. 10 nM of MitoTracker Deep-Red (Thermo Fisher Scientific) was added for 30 minutes at 37° C. before centrifugation and re-suspension in PBS Ca/Mg for FACS analysis (ATTUNE NxT) or Cell Sorting (SONY SH 800). All subsequent steps were performed in the dark. Data analysis was performed using FlowJo software.

MCF7 cells [5] = conditions: cited from earlier work
[6] = breast cancer patients; cited from earlier work

Cc1n[nH]c(C)c1Cc1sc2c(c1C(=O)N1C[C@H](O)CO1)c(=O)n(C)c(=O)n2CC(C)C [AR-C155858]
3D tumor sphere formation [1]: successfully blocked

[Cl-].c1ccc2c(c1)[I+]c1ccccc1-2 [DPI, Diphenyleneiodonium chloride]
3D-spheroid formation in MCF7 cells (MCF7 cells [2]): inhibits
3D-mammosphere formation (MCF7 cells [2]; 100 nM): almost completely inhibited
mammosphere formation in MCF7 cells (MCF7 cells [2]): inhibited
depletion of S-H cells in anchorage-independent single live cells ([3]; 100 nM): ~60%
change in S-H cells [3]: decreasing
increase in the number of M-H cells ([4]; 100 nM DPI, 2D-monolayer cultures, 5-day period): ~7.5 fold
percentage of M-H cells after treatment ([4]; 5-day period (120 hours), concentration dependent, FIG. 7B): increased
mitochondrial mass (MitoTracker) (MCF7 monolayers): increased
mitochondrial function (MCF7 cells [5]): selectively inhibits
toxic side effects (MCF7 cells [5]): without any toxic side effects
changes in cell viability or apoptosis (MCF7 cells [5]; prior studies): did not induce changes
metabolic phenotype shift (MCF7 cells [5]; prior studies): shifted the cells towards a more glycolytic phenotype

CN(C)C(=O)c1cc2cnc(Nc3ccc(N4CCNCC4)cn3)nc2n1C1CCCC1 [Ribociclib]
mammosphere formation in MCF7 cells (MCF7 cells [2]): inhibited
propagation of S-H cells ([3]; FIGS. 8A-C): effectively inhibits
change in S-H cells [3]: decreasing
most common side-effects [6]: neutropenia, anemia and GI-distress

CCCCC[C@H](CC(=O)NO)C(=O)N[C@H](C(=O)N1CCC[C@H]1CO)C(C)C [actinonin]
3D tumor sphere formation [1]: successfully blocked

CC[C@H]1OC(=O)[C@H](C)[C@@H](O[C@H]2C[C@@](C)(OC)[C@@H](O)[C@H](C)O2)[C@H](C)[C@@H](O[C@@H]2O[C@H](C)C[C@H](N(C)C)[C@H]2O)[C@](C)(O)C[C@@H](C)CN(C)[C@H](C)[C@@H](O)[C@]1(C)O [azithromycin]
3D tumor sphere formation [1]: successfully blocked

COc1nc2ccc(Br)cc2cc1[C@@H](c1ccccc1)[C@@](O)(CCN(C)C)c1cccc2ccccc12 [bedaquiline]
3D tumor sphere formation [1]: successfully blocked

COc1ccc2cc3[n+](cc2c1OC)CCc1cc2c(cc1-3)OCO2 [berberine]
3D tumor sphere formation [1]: successfully blocked

COc1ccc([C@@H]2CC(=O)c3c(O)cc(O[C@@H]4O[C@H](COC(=O)CC(C)(O)CC(=O)O)[C@@H](O)[C@H](O)[C@H]4O[C@@H]4O[C@@H](C)[C@H](O)[C@@H](O)[C@H]4O)cc3O2)cc1O (stereo partly shown) [brutieridin]
3D tumor sphere formation [1]: successfully blocked

C[C@@H]1O[C@@H](O[C@@H]2[C@@H](Oc3cc(O)c4c(c3)O[C@H](c3ccc(O)cc3)CC4=O)O[C@@H](COC(=O)C[C@@](C)(O)CC(=O)O)[C@H](O)[C@H]2O)[C@@H](O)[C@H](O)[C@H]1O [melitidin]
3D tumor sphere formation [1]: successfully blocked

CC[C@H]1/C=C/C=C/C[C@@H](C)[C@H](O)[C@@](C)(O)C(=O)[C@@H](C)[C@H](O)[C@@H](C)C(=O)[C@@H](C)[C@H](O)[C@@H](C)/C=C/C(=O)O[C@@H]2[C@H](C)[C@H](CC1)O[C@]1(CC[C@H](C)[C@H](C[C@@H](C)O)O1)[C@H]2C [oligomycin]
3D tumor sphere formation [1]: successfully blocked

CN(C)c1cc(NC(=O)CNC(C)(C)C)c(O)c2c1C[C@H]1C[C@H]3[C@H](N(C)C)C(O)=C(C(N)=O)C(=O)[C@@]3(O)C(O)=C1C2=O [tigecycline]
3D tumor sphere formation [1]: successfully blocked

Reference: patent US11441195B2, “Energetic cancer stem cells (e-CSCs): a new hyper-metabolic and proliferative tumor cell phenotype, driven by mitochondrial energy” (LUNELLA BIOTECH, INC., priority 2018, dated 2022)
